In the NIST ThermoML archive (doi:10.1021/je049762q):

Experiment: molar heat capacity at constant pressure
Settings: 101.33 kPa

Brc1ccc(Br)cc1 [1,4-dibromobenzene]
molar heat capacity at constant pressure [J/K/mol]
Settings	Crystal	Liquid
157.47 K	93.92	–
160 K	94.86	–
160.49 K	95.04	–
163.52 K	96.13	–
166.54 K	97.21	–
169.55 K	98.29	–
170 K	98.46	–
172.58 K	99.4	–
175.6 K	100.5	–
178.62 K	101.59	–
180 K	102.09	–
181.65 K	102.69	–
184.69 K	103.79	–
187.72 K	104.9	–
190 K	105.74	–
190.75 K	106.01	–
193.79 K	107.09	–
196.83 K	108.2	–
199.86 K	109.24	–
200 K	109.29	–
202.9 K	110.27	–
205.94 K	111.41	–
208.97 K	112.54	–
210 K	112.91	–
212.01 K	113.63	–
215.05 K	114.77	–
218.09 K	115.88	–
220 K	116.57	–
221.12 K	116.98	–
224.16 K	118.12	–
227.19 K	119.19	–
230 K	120.22	–
230.23 K	120.31	–
233.27 K	121.42	–
236.31 K	122.55	–
239.34 K	123.69	–
240 K	123.94	–
242.38 K	124.8	–
245.41 K	125.94	–
248.44 K	127.13	–
250 K	127.69	–
251.48 K	128.22	–
254.52 K	129.34	–
257.56 K	130.47	–
260 K	131.36	–
260.6 K	131.58	–
263.64 K	132.68	–
266.67 K	133.83	–
269.71 K	134.94	–
270 K	135.04	–
272.74 K	136.06	–
275.78 K	137.2	–
278.81 K	138.23	–
280 K	138.63	–
281.84 K	139.24	–
284.87 K	140.31	–
287.9 K	141.45	–
290 K	142.24	–
290.93 K	143.08	–
292.89 K	143.33	–
293.96 K	143.64	–
295.8 K	144.5	–
296.99 K	144.79	–
298.15 K	145.34	–
298.79 K	145.71	–
300 K	145.97	–
300.02 K	145.98	–
301.84 K	146.94	–
303.03 K	147.07	–
304.88 K	148.06	–
306.05 K	148.21	–
307.92 K	149.18	–
309.07 K	149.34	–
310 K	149.79	–
310.96 K	150.23	–
312.09 K	150.47	–
314 K	151.06	–
317.04 K	152.02	–
320 K	153.12	–
320.07 K	153.14	–
323.1 K	154.4	–
326.13 K	155.58	–
329.16 K	156.76	–
330 K	157.09	–
332.19 K	157.97	–
335.22 K	159.26	–
338.24 K	160.5	–
340 K	161.27	–
341.26 K	161.81	–
344.28 K	163.16	–
347.3 K	164.65	–
350 K	166.05	–
350.32 K	166.28	–
360 K	171.43	–
360.48 K	171.7	190.38
362.85 K	–	190.92
363.89 K	–	191.22
365.71 K	–	191.62
366.91 K	–	191.91
368.72 K	–	192.27
369.93 K	–	192.55
370 K	–	192.57
371.72 K	–	192.9
372.94 K	–	193.22
374.79 K	–	193.57
377.7 K	–	194.15
380 K	–	194.61
380.68 K	–	194.75
